Measured values published in PubChem BioAssay (NCI).
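A five-concentration, 48-hour dose response in 96-well plates underlies each endpoint, interpolated linearly between surrounding concentrations. At the TGI there is no net growth.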

Tests used:
Assay in all cases: NCI tumour cell line growth inhibition, 48 h
[1] = tested on: MALME-3M melanoma
[2] = tested on: MDA-N
[3] = tested on: ACHN renal
[4] = tested on: RPMI-8226 leukemia
[5] = tested on: SF-539 CNS
[6] = tested on: CCRF-CEM leukemia
[7] = tested on: DU-145 prostate
[8] = tested on: UO-31 renal
[9] = tested on: MOLT-4 leukemia
[10] = tested on: COLO 205 colon
[11] = tested on: HL-60(TB) leukemia
[12] = tested on: MCF7 breast
[13] = tested on: NCI-H460 lung
[14] = tested on: SK-MEL-2 melanoma
[15] = tested on: OVCAR-8 ovarian
[16] = tested on: LOX IMVI melanoma
[17] = tested on: HOP-62 NSCLC
[18] = tested on: SNB-75 CNS
[19] = tested on: A549 NSCLC
[20] = tested on: IGROV1 ovarian
[21] = tested on: NCI/ADR-RES ovarian
[22] = tested on: HCT-15 colon
[23] = tested on: OVCAR-3 ovarian
[24] = tested on: SF-268 CNS
[25] = tested on: HT29 colon
[26] = tested on: SK-OV-3 ovarian
[27] = tested on: A498 renal
[28] = tested on: HCC-2998 colon
[29] = tested on: CAKI-1 renal
[30] = tested on: HS 578T breast
[31] = tested on: OVCAR-4 ovarian
[32] = tested on: T-47D breast
[33] = tested on: KM12 colon
[34] = tested on: SK-MEL-5 melanoma
[35] = tested on: NCI-H226 lung
[36] = tested on: 786-0 renal
[37] = tested on: SK-MEL-28 melanoma
[38] = tested on: NCI-H23 lung
[39] = tested on: NCI-H522 lung
[40] = tested on: TK-10 renal
[41] = tested on: HOP-92 NSCLC
[42] = tested on: U251 CNS
[43] = tested on: HCT-116 colon
[44] = tested on: BT-549 breast
[45] = tested on: SR leukemia
[46] = tested on: K-562 leukemia
[47] = tested on: UACC-257 melanoma
[48] = tested on: OVCAR-5 ovarian
[49] = tested on: M14 melanoma
[50] = tested on: SW-620 colon
[51] = tested on: SF-295 CNS
[52] = tested on: EKVX NSCLC
[53] = tested on: SNB-19 CNS
[54] = tested on: SN12C renal
[55] = tested on: MDA-MB-231 breast
[56] = tested on: PC-3 prostate
[57] = tested on: UACC-62 melanoma
[58] = tested on: MDA-MB-435
[59] = tested on: RXF 393 renal
[60] = tested on: KM20L2 colon
[61] = tested on: HOP-18 NSCLC
[62] = tested on: DLD-1 colon
[63] = tested on: XF 498 CNS
[64] = tested on: M19-MEL melanoma
[65] = tested on: DMS 114 small cell lung
[66] = tested on: DMS 273 small cell lung

Fc1ccc(N=C/C=C/Nc2ccc(F)cc2)cc1
TGI [1]: 30.6 µM
TGI [2]: 18.5 µM
TGI [3]: 15 µM
TGI [4]: 52 µM
TGI [5]: 27.2 µM
TGI [6]: > 51.3 µM
TGI [7]: 26.7 µM
TGI [8]: 21 µM
TGI [9]: 38.5 µM
TGI [10]: 12.5 µM
TGI [11]: 10.3 µM
TGI [12]: 28.3 µM
TGI [13]: 24.7 µM
TGI [14]: 26.7 µM
TGI [15]: 25.9 µM
TGI [16]: 18.5 µM
TGI [17]: 33 µM
TGI [18]: 28.4 µM
TGI [19]: 21.8 µM
TGI [20]: 26.2 µM
TGI [21]: 26.4 µM
TGI [22]: 15.2 µM
TGI [23]: 31.1 µM
TGI [24]: 27.5 µM
TGI [25]: 24.2 µM
TGI [26]: 28.8 µM
TGI [27]: 28.8 µM
TGI [28]: 19.5 µM
TGI [29]: 28.2 µM
TGI [30]: 47.2 µM
TGI [31]: 29.8 µM
TGI [32]: 29.4 µM
TGI [33]: 19.9 µM
TGI [34]: 22.3 µM
TGI [35]: 36.2 µM
TGI [36]: 16.4 µM
TGI [37]: 22 µM
TGI [38]: 48.4 µM
TGI [39]: 27.6 µM
TGI [40]: 4.32 µM
TGI [41]: 33.1 µM
TGI [42]: 20.6 µM
TGI [43]: 18.9 µM
TGI [44]: 27.4 µM
TGI [45]: 9.17 µM
TGI [46]: 22.1 µM
TGI [47]: 26.8 µM
TGI [48]: 25.3 µM
TGI [49]: 11.9 µM
TGI [50]: 20.7 µM
TGI [51]: 24.2 µM
TGI [52]: 25.9 µM
TGI [53]: 26.9 µM
TGI [54]: 28.3 µM
TGI [55]: 30.1 µM
TGI [56]: 22.3 µM
TGI [57]: 16.8 µM
TGI [58]: 20.8 µM
TGI [59]: 30.5 µM

COP(=O)(OC)C(NC(=O)C(F)(F)F)(c1ccccc1)C(F)(F)F (stereo not given)
TGI [60]: > 100 µM
TGI [61]: > 100 µM
TGI [1]: > 100 µM
TGI [62]: > 100 µM
TGI [3]: > 100 µM
TGI [4]: > 100 µM
TGI [5]: > 100 µM
TGI [6]: > 100 µM
TGI [8]: > 100 µM
TGI [63]: > 100 µM
TGI [9]: > 100 µM
TGI [10]: > 100 µM
TGI [11]: > 100 µM
TGI [13]: > 100 µM
TGI [14]: > 100 µM
TGI [64]: > 100 µM
TGI [15]: > 100 µM
TGI [16]: > 100 µM
TGI [17]: > 100 µM
TGI [18]: > 100 µM
TGI [19]: > 100 µM
TGI [20]: > 100 µM
TGI [22]: > 100 µM
TGI [23]: > 100 µM
TGI [24]: > 100 µM
TGI [25]: > 100 µM
TGI [26]: > 100 µM
TGI [27]: > 100 µM
TGI [65]: > 100 µM
TGI [28]: > 100 µM
TGI [29]: > 100 µM
TGI [31]: > 100 µM
TGI [33]: > 100 µM
TGI [34]: > 100 µM
TGI [35]: > 100 µM
TGI [36]: > 100 µM
TGI [37]: > 100 µM
TGI [38]: > 100 µM
TGI [39]: > 100 µM
TGI [40]: > 100 µM
TGI [41]: > 100 µM
TGI [66]: > 100 µM
TGI [42]: > 100 µM
TGI [43]: > 100 µM
TGI [45]: > 100 µM
TGI [46]: > 100 µM
TGI [47]: > 100 µM
TGI [48]: > 100 µM
TGI [49]: > 100 µM
TGI [50]: > 100 µM
TGI [51]: > 100 µM
TGI [52]: > 100 µM
TGI [53]: > 100 µM
TGI [54]: > 100 µM
TGI [57]: > 100 µM
TGI [59]: > 100 µM
